# Laboratory results reported in US11345681B1, “Inhibitors of fibroblast growth factor receptor kinases” (Kinnate Biopharma Inc., priority 2020, dated 2022).
# Molecular target: Wild type FGFR2 (Homo sapiens (Human), UniProt P21802)
# Assay: FGFR2 kinase assay (fluorescence-based microfluidic mobility shift assay)
# Assay type: biochemical
# Conditions: wild type FGFR2 0.06 nM, 100 μM ATP, 80 minutes at room temperature; class symbols
# Chain of Wild type FGFR2 (P21802 22-821): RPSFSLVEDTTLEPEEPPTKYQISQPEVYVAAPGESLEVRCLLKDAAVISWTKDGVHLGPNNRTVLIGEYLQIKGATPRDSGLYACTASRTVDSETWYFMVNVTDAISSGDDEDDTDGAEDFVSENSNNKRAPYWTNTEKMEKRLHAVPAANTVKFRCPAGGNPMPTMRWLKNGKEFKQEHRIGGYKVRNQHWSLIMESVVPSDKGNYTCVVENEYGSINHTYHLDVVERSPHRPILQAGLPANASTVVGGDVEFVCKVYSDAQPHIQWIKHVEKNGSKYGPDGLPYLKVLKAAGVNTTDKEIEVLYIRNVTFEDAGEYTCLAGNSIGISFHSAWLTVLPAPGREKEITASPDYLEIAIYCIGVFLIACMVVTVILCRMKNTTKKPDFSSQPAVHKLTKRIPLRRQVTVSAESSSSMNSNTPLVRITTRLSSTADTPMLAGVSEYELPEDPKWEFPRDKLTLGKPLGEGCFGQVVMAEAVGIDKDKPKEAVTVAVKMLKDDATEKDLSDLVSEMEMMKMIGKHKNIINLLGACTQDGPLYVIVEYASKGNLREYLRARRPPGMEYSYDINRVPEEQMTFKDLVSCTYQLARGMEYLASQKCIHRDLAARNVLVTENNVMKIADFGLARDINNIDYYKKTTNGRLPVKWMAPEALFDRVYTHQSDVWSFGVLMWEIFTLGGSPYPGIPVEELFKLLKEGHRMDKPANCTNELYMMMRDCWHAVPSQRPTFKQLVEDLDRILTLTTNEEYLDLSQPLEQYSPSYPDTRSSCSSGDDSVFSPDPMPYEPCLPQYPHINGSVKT
row,Compound,IC50
1,"C=CC(=O)N1C[C@@H](n2nc(C#Cc3cc4c(cc3Cl)ncn4C(F)F)c(C(N)=O)c2NC)C[C@@H]1COC [Example 93, 3-[2-[6-Chloro-3-(difluoromethyl)-1,3-benzodiazol-5-yl]ethynyl]-1-[(3S,5R)-5-(methoxymethyl)-1-(prop-2-enoyl)pyrrolidin-3-yl]-5-(methylamino)pyrazole-4-carboxamide]",≤ 100 nM
2,"C=CC(=O)N1C[C@@H](n2nc(C#Cc3cc4ncn(C5CC5)c4cc3F)c(C(N)=O)c2N)C[C@@H]1[C@@H](C)O [Example 240, 5-Amino-3-[2-(1-cyclopropyl-6-fluoro-1,3-benzodiazol-5-yl)ethynyl]-1-[(3S,5R)-5-[(1R)-1-hydroxyethyl]-1-(prop-2-enoyl)pyrrolidin-3-yl]pyrazole-4-carboxamide]",≤ 100 nM
3,"C=CC(=O)N1C[C@@H](n2nc(C#Cc3nc4ccccc4o3)c(C(N)=O)c2NC)C[C@@H]1COC [Example 114, 3-[2-(1,3-Benzoxazol-2-yl)ethynyl]-1-[(3S,5R)-5-(methoxymethyl)-1-(prop-2-enoyl)pyrrolidin-3-yl]-5-(methylamino)pyrazole-4-carboxamide]",≤ 100 nM
4,"C=CC(=O)N1C[C@@H](n2nc(C#Cc3cc4ncc(Cl)n4cc3F)c(C(N)=O)c2NC)C[C@@H]1COC [Example 290, 3-(2-{3-Chloro-6-fluoroimidazo[1,2-a]pyridin-7-yl}ethynyl)-1-[(3S,5R)-5-(methoxymethyl)-1-(prop-2-enoyl)pyrrolidin-3-yl]-5-(methylamino)pyrazole-4-carboxamide]",≤ 100 nM
5,"C=CC(=O)N1C[C@@H](n2nc(C#Cc3cc4ncn(CC)c4c(F)c3F)c(C(N)=O)c2NC)C[C@@H]1COC(F)F [Example 154, 1-[(3S,5R)-5-[(Difluoromethoxy)methyl]-1-(prop-2-enoyl)pyrrolidin-3-yl]-3-[2-(1-ethyl-6,7-difluoro-1,3-benzodiazol-5-yl)ethynyl]-5-(methylamino)pyrazole-4-carboxamide]",≤ 100 nM
6,"C=CC(=O)N1C[C@@H](n2nc(C#Cc3ccc4ncn(C(F)F)c4c3)c(C(N)=O)c2NC)C[C@@H]1COC [Example 73, 3-[2-[3-(Difluoromethyl)-1,3-benzodiazol-5-yl]ethynyl]-1-[(3S,5R)-5-(methoxymethyl)-1-(prop-2-enoyl)pyrrolidin-3-yl]-5-(methylamino)pyrazole-4-carboxamide]",≤ 100 nM
7,"C=CC(=O)N1C[C@@H](n2nc(C#Cc3c(F)cc4c(ncn4C4CC4)c3F)c(C(N)=O)c2NC)C[C@@H]1C(F)F [Example 163, 3-[2-(1-Cyclopropyl-4,6-difluoro-1,3-benzodiazol-5-yl)ethynyl]-1-[(3S,5R)-5-(difluoromethyl)-1-(prop-2-enoyl)pyrrolidin-3-yl]-5-(methylamino)pyrazole-4-carboxamide]",≤ 100 nM
8,"C=CC(=O)N1C[C@@H](n2nc(C#Cc3ccc4cc(C)cnc4c3)c(C(N)=O)c2NC)C[C@@H]1COC [Example 65, 1-((3S,5R)-1-Acryloyl-5-(methoxymethyl)pyrrolidin-3-yl)-5-(methylamino)-3-((3-methylquinolin-7-yl)ethynyl)-1H-pyrazole-4-carboxamide]",≤ 100 nM
9,"C=CC(=O)N1C[C@@H](n2nc(C#Cc3cc4ncn(C5CC5)c4cc3Cl)c(C(N)=O)c2N)C[C@@H]1COC [Example 200, 5-Amino-3-[2-(6-chloro-1-cyclopropyl-1,3-benzodiazol-5-yl)ethynyl]-1-[(3S,5R)-5-(methoxymethyl)-1-(prop-2-enoyl)pyrrolidin-3-yl]pyrazole-4-carboxamide]",≤ 100 nM
10,"C=CC(=O)N1C[C@@H](n2nc(C#Cc3cc4ncn(C)c4cc3F)c(C(N)=O)c2NC)C[C@@H]1COC [Example 40, 3-[2-(6-fluoro-1-methyl-1,3-benzodiazol-5-yl)ethynyl]-1-[(3S,5)-5-(methoxymethyl)-1-(prop-2-enoyl)pyrrolidin-3-yl]-5-(methylamino)pyrazole-4-carboxamide]",≤ 100 nM
11,"C=CC(=O)N1C[C@@H](n2nc(C#Cc3cc4ncn(C)c4cc3F)c(C(N)=O)c2NC)C[C@@H]1CF [Example 148, 3-[2-(6-Fluoro-1-methyl-1,3-benzodiazol-5-yl)ethynyl]-1-[(3S,5R)-5-(fluoromethyl)-1-(prop-2-enoyl)pyrrolidin-3-yl]-5-(methylamino)pyrazole-4-carboxamide]",≤ 100 nM
12,"C=CC(=O)N1C[C@@H](n2nc(C#Cc3ccc4c(nc(C)n4C)c3F)c(C(N)=O)c2NC)C[C@@H]1COC [Example 20, 1-((3S,5R)-1-acryloyl-5-(pethoxymethyl)pyrrolidin-3-yl)-3-((4-fluoro-1,2-dimethyl-1H-benzo[d]imidazol-5-yl)ethynyl)-5-(methylamino)-1H-pyrazole-4-carboxamide]",≤ 100 nM
13,"C=CC(=O)N1C[C@@H](n2nc(C#Cc3ccn4nccc4c3)c(C(N)=O)c2NC)C[C@@H]1COC [Example 56, 1-[(3S,5R)-5-(Methoxymethyl)-1-(prop-2-enoyl)pyrrolidin-3-yl]-5-(methylamino)-3-(2-[pyrazolo[1,5-a]pyridin-5-yl]ethynyl)pyrazole-4-carboxamide]",≤ 100 nM
14,"CC#CC(=O)N1C[C@@H](n2nc(C#Cc3c(F)cc4c(ncn4CC)c3F)c(C(N)=O)c2NC)C[C@@H]1COC [Example 137, 1-[(3S,5R)-1-(but-2-ynoyl)-5-(methoxymethyl)pyrrolidin-3-yl]-3-[2-(1-ethyl-4,6-difluoro-1,3-benzodiazol-5-yl)ethynyl]-5-(methylamino)pyrazole-4-carboxamide]",≤ 100 nM
15,"C=CC(=O)N1C[C@@H](n2nc(C#Cc3ccc4c(ncn4C)c3F)c(C(N)=O)c2NC)C[C@@H]1COC [Example 71, 1-((3S,5R)-1-Acryloyl-5-(methoxymethyl)pyrrolidin-3-yl)-3-((4-fluoro-1-methyl-1H-benzo[d]imidazol-5-yl)ethynyl)-5-(methylamino)-1H-pyrazole-4-carboxamide]",≤ 100 nM

# Second part, the compound after the results:
row,IC50,Compound
1,≤ 100 nM,"C=CC(=O)N1CC[C@H](n2nc(C#Cc3c(F)cc4c(ncn4C4CC4)c3F)c(C(N)=O)c2N)C1 [Example 190, 5-Amino-3-[2-(1-cyclopropyl-4,6-difluoro-1,3-benzodiazol-5-yl)ethynyl]-1-[(3S)-1-(prop-2-enoyl)pyrrolidin-3-yl]pyrazole-4-carboxamide]"
2,≤ 100 nM,"C=CC(=O)N1CC[C@H](n2nc(C#Cc3c(F)cc4c(ncn4CC)c3F)c(C(N)=O)c2NCC2CC2)C1 [Example 118, 5-[(Cyclopropylmethyl)amino]-3-[2-(1-ethyl-4,6-difluoro-1,3-benzodiazol-5-yl)ethynyl]-1-[(3S)-1-(prop-2-enoyl)pyrrolidin-3-yl]pyrazole-4-carboxamide]"
3,≤ 100 nM,"C=CC(=O)N1C[C@@H](n2nc(C#Cc3ccc4c(c3)nc(C)n4CC)c(C(N)=O)c2NC)C[C@@H]1COC [Example 3, 3-[2-(1-ethyl-2-methyl-1,3-benzodiazol-5-yl)ethynyl]-1-[(3S,5R)-5-(methoxymethyl)-1-(prop-2-enoyl)pyrrolidin-3-yl]-5-(methylamino)pyrazole-4-carboxamide]"
4,≤ 100 nM,"C=CC(=O)N1C[C@@H](n2nc(C#Cc3ccc4cccnc4c3)c(C(N)=O)c2NC)C[C@@H]1COC [Example 52, 1-[(3S,5R)-5-(Methoxymethyl)-1-(prop-2-enoyl)pyrrolidin-3-yl]-5-(methylamino)-3-[2-(quinolin-7-yl)ethynyl]pyrazole-4-carboxamide]"
5,≤ 100 nM,"C=CC(=O)N1C[C@@H](n2nc(C#Cc3cc4c(cc3Cl)ncn4[C@@H]3CC3(F)F)c(C(N)=O)c2NC)C[C@@H]1COC (single isomer, unassigned) [Example 288]"
6,≤ 100 nM,"C=CC(=O)N1C[C@@H](n2nc(C#Cc3cc4nc[nH]c4cc3Cl)c(C(N)=O)c2NC)C[C@@H]1COC [Example 92, 3-[2-(6-Chloro-1H-1,3-benzodiazol-5-yl)ethynyl]-1-[(3S,5R)-5-(methoxymethyl)-1-(prop-2-enoyl)pyrrolidin-3-yl]-5-(methylamino)pyrazole-4-carboxamide]"
7,≤ 100 nM,"C=CC(=O)N1C[C@@H](n2nc(C#Cc3c(F)cc4[nH]c(C5CC5)nc4c3F)c(C(N)=O)c2NC)C[C@@H]1COC [Example 61, 3-[2-(2-Cyclopropyl-4,6-difluoro-1H-1,3-benzodiazol-5-yl)ethynyl]-1-[(3S,5R)-5-(methoxymethyl)-1-(prop-2-enoyl)pyrrolidin-3-yl]-5-(methylamino)pyrazole-4-carboxamide]"
8,≤ 100 nM,"C=CC(=O)N1C[C@@H](n2nc(C#Cc3cc4ncn(CC)c4cc3Cl)c(C(N)=O)c2NC)C[C@@H]1CO [Example 191, 3-[2-(6-Chloro-1-ethyl-1,3-benzodiazol-5-yl)ethynyl]-1-[(3S,5R)-5-(hydroxymethyl)-1-(prop-2-enoyl)pyrrolidin-3-yl]-5-(methylamino)pyrazole-4-carboxamide]"
9,≤ 100 nM,"C=CC(=O)N1C[C@@H](n2nc(C#Cc3c(F)cc4c(nnn4C)c3F)c(C(N)=O)c2NC)C[C@@H]1COC [Example 97, 3-[2-(4,6-Difluoro-1-methyl-1,2,3-benzotriazol-5-yl)ethynyl]-1-[(3S,5R)-5-(methoxymethyl)-1-(prop-2-enoyl)pyrrolidin-3-yl]-5-(methylamino)pyrazole-4-carboxamide]"
10,≤ 100 nM,"C=CC(=O)N1C[C@@H](n2nc(C#Cc3nc4ccccc4s3)c(C(N)=O)c2NC)C[C@@H]1COC [Example 102, 3-[2-(1,3-Benzothiazol-2-yl)ethynyl]-1-[(3S,5R)-5-(methoxymethyl)-1-(prop-2-enoyl)pyrrolidin-3-yl]-5-(methylamino)pyrazole-4-carboxamide]"
11,≤ 100 nM,"C=CC(=O)N1CC[C@H](n2nc(C#Cc3c(F)cc4c(ncn4C4CC4)c3F)c(C(N)=O)c2NC)C1 [Example 186, 3-[2-(1-Cyclopropyl-4,6-difluoro-1,3-benzodiazol-5-yl)ethynyl]-5-(methylamino)-1-[(3S)-1-(prop-2-enoyl)pyrrolidin-3-yl]pyrazole-4-carboxamide]"
12,≤ 100 nM,"C=CC(=O)N1C[C@@H](n2nc(C#Cc3cc4ncn(C5CC5)c4cc3F)c(C(N)=O)c2N)C[C@@H]1COC(F)F [Example 211, 5-Amino-3-[2-(1-cyclopropyl-6-fluoro-1,3-benzodiazol-5-yl)ethynyl]-1-[(3S,5R)-5-[(difluoromethoxy)methyl]-1-(prop-2-enoyl)pyrrolidin-3-yl]pyrazole-4-carboxamide]"
